In patent publication US20210355138A1, “AMINOTHIAZINIES AND THEIR USE AS BACE1 INHIBITORS” (Eli Lilly and Company, priority 2016, published 2021):
Read-outs that look alike come from different tables or passages of the source.

Experiments:
BACE1 = target: T1, BACE1 (Homo sapiens, UniProt P56817); test: SH-SY5YAPP695Wt Whole Cell Assay (Abeta ELISA); type: cell-based; details: SH-SY5Y cells stably expressing human APP695Wt, 24 hours incubation, n=6
T1 construct: endogenous in cells; host or cells: SH-SY5Y (ATCC CRL2266) stably expressing human APP695Wt
T1 sequence (P56817 46-501): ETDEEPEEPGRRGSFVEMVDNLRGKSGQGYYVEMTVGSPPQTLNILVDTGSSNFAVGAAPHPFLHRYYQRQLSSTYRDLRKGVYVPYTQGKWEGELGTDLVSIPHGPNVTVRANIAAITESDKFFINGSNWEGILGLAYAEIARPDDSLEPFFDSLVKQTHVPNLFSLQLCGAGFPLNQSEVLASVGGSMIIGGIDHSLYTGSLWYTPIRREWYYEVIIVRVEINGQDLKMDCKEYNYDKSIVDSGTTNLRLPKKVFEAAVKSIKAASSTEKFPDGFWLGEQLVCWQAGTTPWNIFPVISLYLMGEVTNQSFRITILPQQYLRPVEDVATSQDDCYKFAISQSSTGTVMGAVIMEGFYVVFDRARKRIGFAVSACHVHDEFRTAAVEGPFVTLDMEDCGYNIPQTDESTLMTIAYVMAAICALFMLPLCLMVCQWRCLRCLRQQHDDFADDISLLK
Protocol: (§1) To assess selectivity of BACE1 over BACE2, the test compound is evaluated in FRET assays using specific substrates for BACE1 and BACE2 as described below. For in vitro enzymatic and cellular assays, the test compound is prepared in DMSO to make up a 10 mM stock solution. The stock solution is serially diluted in DMSO to obtain a ten-point dilution curve with final compound concentrations ranging from 10 μM to 0.05 nM in a 96-well round-bottom plate before conducting the in vitro enzymatic and whole cell assays.
The routine whole cell assay for the measurement of inhibition of BACE1 activity utilizes the human neuroblastoma cell line SH-SY5Y (ATCC Accession No. CRL2266) stably expressing a human APP695Wt cDNA. Cells are routinely used up to passage number 6 and then discarded.
SH-SY5YAPP695Wt cells are plated in 96 well tissue culture plates at 5.0×10^4 cells/well in 200 μL culture media (50% MEM/EBSS and Ham's F12, 1× each sodium pyruvate, non-essential amino acids and NaHCO3 containing 10% FBS). The following day, media is removed from the cells, fresh media added then incubated at 37° C. for 24 hours in the presence/absence of test compound at the desired concentration range.
At the end of the incubation, conditioned media are analyzed for evidence of beta-secretase activity by analysis of Abeta peptides 1-40 and 1-42 by specific sandwich ELISAs. […]

Human BACE1(1-460):Fc = target: T2, Human BACE1(1-460):Fc (Homo sapiens, UniProt P56817); test: BACE1 FRET Assay; type: biochemical; details: purified recombinant huBACE1:Fc, FRET substrate based on APP sequence, pH 4.6; mean ± standard deviation of the mean (0.035), n=5
T2 construct: made in house; host or cells: HEK293 (transient transfection, conditioned medium)
T2 sequence (P56817 22-460): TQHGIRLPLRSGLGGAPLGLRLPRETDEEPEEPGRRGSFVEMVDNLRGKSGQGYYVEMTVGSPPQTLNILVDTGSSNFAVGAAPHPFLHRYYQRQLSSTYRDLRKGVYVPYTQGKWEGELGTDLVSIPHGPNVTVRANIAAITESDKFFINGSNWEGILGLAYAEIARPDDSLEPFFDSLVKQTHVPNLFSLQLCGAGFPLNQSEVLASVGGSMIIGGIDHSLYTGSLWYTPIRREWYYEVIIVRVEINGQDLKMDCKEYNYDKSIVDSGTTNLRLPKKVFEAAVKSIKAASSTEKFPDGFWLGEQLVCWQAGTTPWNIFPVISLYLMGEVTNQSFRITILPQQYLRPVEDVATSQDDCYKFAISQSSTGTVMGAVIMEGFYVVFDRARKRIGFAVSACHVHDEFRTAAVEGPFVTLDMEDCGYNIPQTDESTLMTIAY
Protocol: as §1
Human BACE1 (accession number: AF190725) and human BACE2 (accession number: AF 204944) are cloned from total brain cDNA by RT-PCR. The nucleotide sequences corresponding to amino acid sequences #1 to 460 are inserted into the cDNA encoding human IgG1 (Fc) polypeptide (Vassar et al., Science, 286, 735-742 (1999)). […]
Conditioned media of HEK293 cells transiently transfected with huBACE1:Fc or huBACE2:Fc cDNA are collected. […] The purity of the final product is assessed by electrophoresis in 4-20% Tris-Glycine SDS-PAGE. […]
Serial dilutions of the test compound are prepared as described above. […] The RFU of the mixture at time 0 is recorded at excitation wavelength 355 nm and emission wavelength 460 nm, after brief mixing on a plate shaker. […] The RFU at the end of incubation is recorded with the same excitation and emission settings used at time 0. […]

IC50 (BACE1; Abeta 1-40 in conditioned media, mean ± standard deviation of the mean (0.0104), read-out: IC50 for SH-SY5YAPP695Wt A-beta (1-40) ELISA): 0.026 nM
IC50 (BACE1; Abeta 1-42 in conditioned media, mean ± standard deviation of the mean (0.0187), read-out: IC50 for SH-SY5YAPP695Wt A-beta (1-42) ELISA): 0.0313 nM
IC50 (Human BACE1(1-460):Fc): 0.263 nM
SMILES: CC(F)(F)[C@H]1C[C@H]2CSC(N)=N[C@@]2(c2cc(NC(=O)c3ccc(C#N)cn3)ccc2F)CO1 [Example 1, N-[3-[(4aR,6R,8aS)-2-Amino-6-(1,1-difluoroethyl)-4a,5,6,8-tetrahydro-4H-pyrano[3,4-d][1,3]thiazin-8a-yl]-4-fluoro-phenyl]-5-cyano-pyridine-2-carboxamide]
